Usually MIC stands for the smallest concentration in the dilution series that meets the test's criterion for growth inhibition.

Values after ≈ are worked out from the molar mass of the structure shown. Read-outs that look alike come from different tables or passages of the source. Residues, ends and D or L forms follow the SMILES beside them.

The record followed here is patent US20220378043A1, “BIOFILM TREATMENT AGENT AND BIOFILM TREATMENT METHOD” (SEIKO PMC CORPORATION, priority 2019, published 2022).

Test [1] deals with Pseudomonas aeruginosa (deposit number: NBRC106052 strain). The test can be described thus: Minimum inhibitory concentration (MIC) test. The test is classed as cell-based. On the procedure:
A compound (hereinafter, sometimes referred to as a substance to be evaluated) that is a component of a biofilm treatment agent is diluted stepwise with a bouillon medium for testing susceptibility to prepare a total amount of 10 mL of dilution series (with the proviso of being 1.1 times the target concentration). 20 μL of a bacterial suspension which has been prepared such that there is 10^8 cfu/mL of Pseudomonas aeruginosa (deposit number: NBRC106052 strain) which is a representative strain of biofilm-forming bacteria as a test bacterial strain is added thereto and subjected to shaking culture (2000 rpm) with a 96-well microplate mixer at 37° C. for 24 hours. The lowest concentration in the dilution series which is not visually turbid is regarded as the MIC.
Pseudomonad (gram-negative bacterium) known as a model bacterium forming a biofilm was used as a test bacterium to MIC's of compounds (hereinafter, substances to be evaluated) that are components of a biofilm treatment agent.
(1) Test Bacterium Pseudomonas aeruginosa (Deposit Number: NBRC106052 Strain)
Each substance to be evaluated was diluted stepwise with a bouillon medium for testing susceptibility to prepare a total amount of 10 mL of dilution series (with the proviso of being 1.1 times the target concentration). 20 μL of a bacterial suspension which had been prepared such that there was 10^8 cfu/mL of a test bacterial strain was added thereto and subjected to shaking culture (2000 rpm) with a 96-well microplate mixer at 37° C. for 24 hours. The lowest concentration in the dilution series which was not visually turbid was regarded as the MIC.

For test [2], the system named is Pseudomonas aeruginosa (deposit number: NBRC106052 strain) biofilm. Description: Evaluation of biofilm-removing effect (crystal violet staining of pre-formed biofilm). The settings on record: Table 4: anthranilic acid analog and/or biosurfactant or synthetic surfactant, each at Table 2 concentration, pH 7.0, 3.5 hours contact. The test is classed as cell-based. The text has this: In the present invention, the biofilm-removing effect is an action of removing biofilms formed by bacteria. Examples of methods for evaluating an effect of removing substances to be evaluated include a method for comparing the amount of biofilm formed after bringing the substance to be evaluated into contact with a biofilm formed through culturing bacteria for a certain period of time with the amount of biofilm (control) formed after the elapse of a certain period of time without the biofilm being brought into contact with the substance to be evaluated. In this case, when the amount of biofilm formed is smaller than that of the control, it can be determined that the substance to be evaluated has a biofilm-removing effect.
(i) A triptic soy broth (TBS, Bacto: manufactured by Difco Laboratories) medium having a final concentration of glucose of 1% is used for Pseudomonas aeruginosa (deposit number: NBRC106052 strain) which is a representative strain of biofilm-forming bacteria to prepare a preculture solution under the condition of 120 rpm.
(ii) The preculture solution of which the turbidity (OD) is adjusted to 0.1 is diluted with a TSB medium so that the final concentration is 0.000005% (v/v), and 2 mL of the diluent is dispensed into a 12-well plate. Here, the following OD (turbidity) is a value which is measured with a spectrophotometer (iMark Microplate Reader: manufactured by Bio-Rad Laboratories, Inc.) at a wavelength of 630 nm in which distilled water is used as a blank.
(iii) Culture is performed under the conditions of 37° C. and 130 rpm for 17 hours to form a biofilm.
(iv) The culture solution in each well is removed and each well is rinsed twice with distilled water.
(v) A substance to be evaluated is added to a medium at an appropriate concentration less than the MIC of the target substance, and the pH of the medium is adjusted to 7.0 with hydrochloric acid or sodium hydroxide. 2 mL of a sterile medium (pH=7.0) is added to each well to be used as a negative control.
(vi) Each well is shaken at the same temperature as that of the preculture for 3.5 hours at 130 rpm, the biofilm is brought into contact with the medium containing the substance to be evaluated, and then, the medium in each well is removed, and each well is rinsed twice with distilled water.
(vii) 2 mL of an aqueous crystal violet solution (0.4 w/v %, 20 w/v % methanol) is added to the biofilm adhering in each well, allowed to stand for 2 minutes, and allowed to stain, and then, the stained biofilm is rinsed three times with distilled water, and the aqueous crystal violet solution which has not been bound to the biofilm is removed.
(viii) 2 mL of ethanol is added to each well and allowed to stand for 1 hour to elute crystal violet from the stained biofilm, and the absorbance is measured. Here, the following absorbance is a value which is measured with a spectrophotometer (iMark Microplate Reader: manufactured by Bio-Rad Laboratories, Inc.) at a wavelength of 595 nm in which distilled water is used as a blank.
(ix) Regarding the absorbance of the negative control and each substance to be evaluated, absorbances measured for 4 wells are taken as an average value, and the removal rate of each biofilm is calculated from the following calculation equation.
Biofilm removal rate (%)={1-(absorbance of substance to be evaluated/absorbance of negative control)}×100
The biofilm-removing effect and the biofilm formation-inhibiting effect of each of the substances to be evaluated shown in Table 1 were confirmed according to the evaluation methods specified in the present invention using each biofilm treatment agent containing each substance to be evaluated as a biofilm treatment agent component. In addition, evaluation results of the biofilm-removing effect and the biofilm formation-inhibiting effect of each aromatic monohydric alcohol alone are shown in […]

Setting [3] is: Pseudomonas aeruginosa, NBRC106052, bouillon medium, 37° C., 24 hours, lowest concentration not visually turbid, read-out: MIC.
[4] abbreviates: bouillon medium, 37° C., 24 hours, lowest concentration not visually turbid.
Where [5] appears, read: Pseudomonas aeruginosa, NBRC106052, 24 h.

In the case of `CCCCCO` [Comparative Example 1, 1-Pentanol], the MIC in test [1] (setting [3]) was > 5000 µg/mL.
For the compound `NC(=O)c1ccccc1N` [Comparative Example 5, Anthranylamide], the “Removal results (removal rate %)” value in test [2] came to 25%. Further, in test [1] (setting [4]), the MIC was 5,000 ppm.
With `COC(=O)c1ccccc1N` [Comparative Example 6, Methyl anthranilate], the “Removal results (removal rate %)” value in test [2] is 33%. Moreover, the lowest concentration to inhibit growth in test [1] (setting [5]) (MIC) was 1250 µg/mL (≈ 8.27 mM).
The corresponding values for `Nc1ccccc1C(=O)O` [Comparative Example 7, Anthranilic acid] are 20% and 10000 µg/mL (≈ 72.9 mM).
`CC(C)CCCCCCCCC[C@@H]1CC(=O)N[C@@H](CCC(=O)O)C(=O)N[C@@H](CC(C)C)C(=O)N[C@H](CC(C)C)C(=O)N[C@@H](C(C)C)C(=O)N[C@@H](CC(=O)O)C(=O)N[C@H](CC(C)C)C(=O)N[C@@H](CC(C)C)C(=O)O1` [Comparative Example 9, Surfactin] (HELM PEPTIDE1{E.L.[dL].V.D.[dL].L}|CHEM1{[CC(C)CCCCCCCCC[C@H](CC(=O)[*:1])O[*:2]]}$PEPTIDE1,CHEM1,1:R1-1:R1|PEPTIDE1,CHEM1,7:R2-1:R2$$$V2.0): in test [2], the “Removal results (removal rate %)” value is listed as 24%. The MIC in test [1] (setting [3]) worked out at 10000 µg/mL (≈ 9.65 mM).
On to `OCc1ccccc1` [Example 1, 1-Phenylmethanol], for which, in test [1] (setting [3]), the MIC is 2500 µg/mL (≈ 23.1 mM).
Regarding `CC(O)c1ccccc1` (stereo not drawn) [Example 2, 1-Phenylethanol], in test [1] (setting [5]), the MIC was determined as 5000 µg/mL (≈ 40.9 mM).
`OCCc1ccccc1` [Example 3, 2-Phenylethanol]: the MIC in test [1] (setting [3]) came to 5000 µg/mL (≈ 40.9 mM).
The compound `OCCOc1ccccc1` [Example 4, 2-Phenoxyethanol] yielded an MIC in test [1] (setting [5]) of 2500 µg/mL (≈ 18.1 mM).
`OCCCOc1ccccc1` [Example 5, 3-Phenoxy-1-propanol]: inhibition of growth in test [1] (setting [5]) (MIC) required 2500 µg/mL (≈ 16.4 mM).
For `OCC=Cc1ccccc1` [Example 6, Cinnamyl alcohol], in test [1] (setting [3]), the MIC worked out at 2500 µg/mL (≈ 18.6 mM).
`CCCCCCCCCCCCOS(=O)(=O)[O-].[Na+]` [SDS, sodium dodecyl sulfate]: the MIC in test [1] (setting [3]) stood at 2000 µg/mL.
The same measure, in the same setting: then `OCC(CO)c1ccccc1` [compound 2, 2-Phenyl-1,3-propanediol], with > 5000 µg/mL.
As for `OCC(O)COc1ccccc1` (stereo not drawn) [compound 3, 3-Phenoxy-1,2-propanediol], the MIC in test [1] (setting [5]) was > 5000 µg/mL.
For the compound `N#CC(Br)(Br)C(N)=O` [compound 4, 2,2-dibromo-3-nitrilopropionamide], the MIC in test [1] (setting [3]) came out at 19.5 µg/mL (≈ 0.0806 mM).
For the compound Rhamnolipid [Comparative Example 8], the “Removal results (removal rate %)” value in test [2] came out at 24%. Also, the MIC in test [1] (setting [4]) is >10,000 ppm.
Sophorolipid [Comparative Example 10]: the “Removal results (removal rate %)” value in test [2] is 36%. In test [1] (setting [4]), the MIC was >10,000 ppm.
For polyoxyethylene lauryl ether [POELE], the MIC in test [1] (setting [4]) is given as >2,000 ppm.
